Measurements reported in patent US20040122058A1, “Use of specific compounds particularly kinase inhibitors for treating viral infections” (priority 2001, published 2004).

Tests used:
[1] = system: Marburg virus induced TNF-α release in primary human macrophages; type: cell-based
[2] = system: Ebola virus induced TNF-α release in primary human macrophages; type: cell-based
[3] = system: Ebola (EBO) virus infected peripheral blood mononuclear cells (PBMC); type: cell-based, human
[4] = system: Marburg (MBG) virus infected peripheral blood mononuclear cells (PBMC); type: cell-based, human
[5] = system: bacterial LPS-induced TNF-α release; type: cell-based, human
[6] = system: IL-1 beta release of Ebola virus infected VeroE6 cells
[7] = system: IL-1 beta release of Marburg virus infected VeroE6 cells

Row | Structure (SMILES) | Marburg virus induced TNFα production [1] | virally induced TNF-α release [1] | Ebola virus induced TNFα production [2] | virally induced TNF-α release [2] | TNF-α release [3] | TNF-α release [4] | bacterial LPS-induced TNF-α production [5] | bacterial LPS-induced TNF-α release [5] | release of IL-1 beta to the supernatant [6] | release of IL-1 beta to the supernatant [7] | replication of Marburg virus (plaques) (Marburg virus) | replication of Ebola virus (plaques) (Ebola virus) | Marburg virus induced TNF-α release/production [1] | Ebola virus induced TNF-α release/production [2]
1 | COc1cccc(-c2cc(=O)c3ccccc3o2)c1N [Compound 1, 2′-amino-3′-methoxyflavone] | inhibited very strongly and dose-dependently | inhibitory effects | inhibited very strongly and dose-dependently | inhibitory effects | dose-dependent inhibitory effect | dose-dependent inhibitory effect | no inhibitory effect at all | did not reduce | – | – | – | – | – | –
2 | O=C(NOCC1CC1)c1ccc(F)c(F)c1Nc1ccc(I)cc1Cl [Compound 2, 2-(2-chloro-4-iodophenylamino)-N-cyclopropylmethoxy-3,4-difluorobenzamide] | inhibited very strongly and dose-dependently | inhibitory effects | inhibited very strongly and dose-dependently | inhibitory effects | inhibitory effect | inhibitory effect | no inhibitory effect at all | did not reduce | – | – | – | – | – | –
3 | N#CC(=C(N)Sc1ccccc1N)C(C#N)=C(N)Sc1ccccc1N [Compound 3, 1,4-diamino-2,3-dicyano-1,4-bis(2-aminophenylthio)butadiene] | inhibited very strongly and dose-dependently | inhibitory effects | inhibited very strongly and dose-dependently | inhibitory effects | dose-dependent inhibitory effect | dose-dependent inhibitory effect | no inhibitory effect at all | did not reduce | dramatically reduces | dramatically reduces | does not have an obvious effect | does not have an obvious effect | – | –
4 | Oc1ccc(-c2nc(-c3ccc(F)cc3)c(-c3ccncc3)[nH]2)cc1 [Compound 4] | – | – | – | – | – | – | no inhibitory effect at all | – | – | – | – | – | did not significantly inhibit | did not significantly inhibit
